Measurements as given in the NIST ThermoML archive (doi:10.1016/j.tca.2017.03.018).
± gives the expanded uncertainty stated by the source.

Experiments:
[1] = relative permittivity at zero frequency (dimensionless); wn = mass fraction of the nth substance listed; conditions: 100 kPa, Liquid, time-domain reflectometry
[2] = relative permittivity at zero frequency (dimensionless); conditions: 100 kPa, Liquid, time-domain reflectometry

OC[C@@H](O)[C@@H](O)[C@H](O)[C@H](O)CO [mannitol] + C[S+](C)[O-]
relative permittivity at zero frequency, [1]
Conditions | 283.15 K | 288.15 K | 293.15 K | 298.15 K
w1 = 0.05 | 52.35 ± 1.1 | 50.82 ± 1 | 49.49 ± 0.99 | 48.89 ± 0.98
w1 = 0.1 | 55.31 ± 1.1 | 52.92 ± 1.1 | 51.48 ± 1 | 50.27 ± 1
w1 = 0.15 | 56.79 ± 1.1 | 55.37 ± 1.1 | 53.15 ± 1.1 | 52.18 ± 1

C[S+](C)[O-] [dimethyl sulfoxide] + OC[C@@H](O)[C@H](O)[C@@H](O)CO
[1], w2 = 0
Conditions | relative permittivity at zero frequency
283.15 K | 50.58 ± 1
288.15 K | 49.42 ± 0.99
293.15 K | 47.81 ± 0.96
298.15 K | 47.3 ± 0.95

OC[C@@H](O)[C@H](O)[C@@H](O)CO [xylitol] + C[S+](C)[O-]
relative permittivity at zero frequency, [1]
Conditions | w1 = 0.05 | w1 = 0.1 | w1 = 0.15 | w1 = 0.2 | w1 = 0.25
283.15 K | 52.53 ± 1.1 | 53.28 ± 1.1 | 56.35 ± 1.1 | 58.46 ± 1.2 | 58.08 ± 1.2
288.15 K | 50.33 ± 1 | 51.31 ± 1 | 53.72 ± 1.1 | 55.28 ± 1.1 | 55.18 ± 1.1
293.15 K | 49.39 ± 0.99 | 50.11 ± 1 | 52.45 ± 1.1 | 53.97 ± 1.1 | 54.23 ± 1.1
298.15 K | 48.1 ± 0.96 | 49.63 ± 0.99 | 51.6 ± 1 | 53.03 ± 1.1 | 53.69 ± 1.1

C[S+](C)[O-] [dimethyl sulfoxide] + OC[C@@H](O)[C@@H](O)CO
[1], w2 = 0
Conditions | relative permittivity at zero frequency
283.15 K | 50.58 ± 1
288.15 K | 49.42 ± 0.99
293.15 K | 47.81 ± 0.96
298.15 K | 47.3 ± 0.95

C[S+](C)[O-] [dimethyl sulfoxide] + OC[C@@H](O)[C@@H](O)[C@H](O)[C@H](O)CO
[1], w2 = 0
Conditions | relative permittivity at zero frequency
283.15 K | 50.58 ± 1
288.15 K | 49.42 ± 0.99
293.15 K | 47.81 ± 0.96
298.15 K | 47.3 ± 0.95

C[S+](C)[O-] [dimethyl sulfoxide]
[2]
Conditions | relative permittivity at zero frequency
283.15 K | 50.58 ± 1
288.15 K | 49.42 ± 0.99
293.15 K | 47.81 ± 0.96
298.15 K | 47.3 ± 0.95

OC[C@@H](O)[C@@H](O)CO [meso-1,2,3,4-butanetetrol] + C[S+](C)[O-]
relative permittivity at zero frequency, [1]
Conditions | w1 = 0.05 | w1 = 0.1 | w1 = 0.15 | w1 = 0.2 | w1 = 0.25
283.15 K | 51.26 ± 1 | 54.06 ± 1.1 | 55.7 ± 1.1 | 57.23 ± 1.1 | 58.96 ± 1.2
288.15 K | 50.01 ± 1 | 51.84 ± 1 | 52.87 ± 1.1 | 54.96 ± 1.1 | 55.78 ± 1.1
293.15 K | 48.57 ± 0.97 | 50.49 ± 1 | 51.35 ± 1 | 53.36 ± 1.1 | 54.3 ± 1.1
298.15 K | 47.78 ± 0.96 | 48.96 ± 0.98 | 50.43 ± 1 | 52.23 ± 1.1 | 52.77 ± 1.1
